In experiment [1] the target is T1, JAK3 (Homo sapiens, UniProt P52333).
T1 construct: purchased Thermo fisher PV3855
The experiment is described as follows: JAK3 biochemical assay (ADP-GLO Kinase Assay). The conditions noted are these: for IC50: B*: testing performed in a first testing facility, read-out: JAK3 IC50 (nM) Relative, B*; for JAKs/HPK1 IC50 Ratio, B*: ratio of JAK3 IC50 to HPK1 IC50, first testing facility. The procedure:
Biology Example 4 JAK3 Biochemical Assay
This example used the ADP-GLO™ Kinase Assay to measure the effect of potential HPK1 inhibitor compounds on JAK3 kinase activity. An exemplary experimental setting is described below, though minor adjustments can be made in individual assays.
3. Procedures • 1. Prepare JAK3 kinase buffer • Freshly adding DTT and BSA into Buffer (Final Conc.: 40 mM Tris pH7.5; 20 mM MgCl2, 0.1 mg/ml BSA, 50 μM DTT).
• 2. Compounds Preparation • For tested compounds: compounds were diluted to 1 mM, by mixing 5 μL of 10 mM compound stocks to 45 μL DMSO. The compounds solutions were then serially diluted 3-fold for 10 doses. The top compound concentration was 1 mM (100×), DMSO concentration was 100%. • 50 nL of each of 10 doses of diluted compound were added to 384-well assay plate (Corning #4512) by ECHO. • For positive control, 50 nL of 1 mM reference compound were added to 384-well assay plate (Corning #4512) by ECHO. • For negative control: 50 nL of DMSO was transferred into 384-well assay plate as a negative control. • The assay plate was centrifuged at 1,500 rpm for 1 minute. • 3. Compounds were Transferred by ECHO Following the Layout Below: • Reference and test compounds 1-15: serial 3-fold dilution from 10 μM to 0.508 nM (10 doses); negative control is 0.78 ng JAK3, 4 μM ATP & 0.2 μg/μL poly, 1% DMSO; positive control is the top dose of the reference compound, 0.78 ng JAK3, 0.2 μg/μL Poly(E4Y1), 4 μMATP, 1% DMSO. • 4. Add 2.5 μL/well of 2×JAK3 working solution using pipette (Thermo, 30 μL multi-channel), Centrifuge at 1,500 rpm for 1 minute. • 5. Add 2.5 μL/well of 2×ATP-Poly(E4Y1) working mixture using pipette (Thermo, 30 μL multi-channel), Centrifuge at 1,500 rpm for 1 minute. • 6. Incubate the assay plate at 25° C. for 60 min. • 7. Add 5 μL/well ADP-GLO™ Reagent by BRAVO to stop the kinase reaction and deplete the unconsumed ATP after 1 hour. Centrifuge at 1,500 rpm for 1 minute. Incubate at 25° C. for 40 min. • 8. Add 10 uL of Kinase Detection Reagent by BRAVO to convert ADP to ATP. Centrifuge at 1,500 rpm for 1 minute. Incubate at 25° C. for 40 min. • 9. Record luminescence signal on an Envision plate reader (384-USL). • 10. Process data using XL-fit. Inhibition %=[1-(test well−Negative control)/(positive control−Negative control)]*100%. 5. Data Analysis
The percent (%) inhibition at each concentration of compound is calculated based on and relative to the signal in the Negative and Positive control wells contained within each assay plate. The Negative control wells served as 0% inhibition, and the Positive control wells served as 100% inhibition. The concentrations and % inhibition values for tested compounds are plotted and the concentration of compound required for 50% inhibition (IC50) is determined with a Three-parameter logistic dose response equation. The endpoint value (IC50) for the reference peptide/compound is evaluated in each experiment as a quality control measure. If the endpoint value was within 3-fold of the expected value then the experiment was deemed acceptable.
On the technique in general: ADP-Glo turns the ADP formed in a reaction into a luminescent signal.

The target of experiment [2] is HPK1 (Homo sapiens, UniProt Q92918). The experiment is described as follows: HPK1 biochemical assay (ADP-GLO Kinase Assay). To be noted: B*: testing performed in a first testing facility; read-out: HPK1 IC50 (nM) Relative, B*. The text has this:
IC50 values of any compounds can be determined accordingly over a range of inhibitor concentrations. In addition, the inhibitory effect of the compounds can also be assess using a biological assay, to determine the effect of the compounds on cytokine secretion by T cells following TCR and CD28 stimulation.
Biology Example 1 HPK1 Biochemical Assay
This example used the ADP-GLO™ Kinase Assay to measure the effect of potential HPK1 inhibitor compounds on HPK1 kinase activity.
The ADP-GLO™ Kinase Assay (Promega Corp., Madison, WI) measures ADP formed from a kinase reaction. According to the manufacture, the ADP formed in a kinase assay is first converted into ATP, which is then used to generate light in a luciferase reaction. The luminescence generated correlates with kinase activity. An exemplary experimental setting is described below, though minor adjustments can be made in individual assays.
Serial 3-fold dilution of compounds from 10 μM (top concentration) to 0.508 nM (lowest concentration). Positive control is 10 μM Reference+enzyme+substrate. Negative control is 1% DMSO+enzyme+substrate.
• 1. Buffer Preparation • 40 mM Tris pH7.5; 20 mM MgCl2, 0.1 mg/ml BSA, 50 μM DTT Buffer Stock
Add 20 mL 1M Tris and 10 mL 1M MgCl2 to 470 mL ddH2O to get buffer stock, and stock at RT. • 2. Preparing Fresh 1* Assay Buffer
• 3. Compounds Preparation • 1) The compounds were diluted to 1 mM, by mixing 10 μL of 10 mM respective compound stocks with 90 μL of DMSO. • 2) The compounds were then diluted 3-fold for 10 doses (5 μL to 10 μL dilution) by BRAVO. The top compound conc. was 1 mM (100×), DMSO Conc. was 100%. • 3) Transfer 100 nL of each diluted compound sample to 384-well plate (Corning-4512) by ECHO. • 4) Centrifuge the plate at 1,500 rpm for 1 minute. • 4. Preparation of 2×ATP-MBP Mixture: • 20 μM ATP, 0.2 μg/μL MBP in Kinase Buffer (final concentration: 10 μM ATP, 0.1 MBP)
• 5. Preparation of 2×HPK1 working solution with assay buffer. • HPK1 final concentration was 0.6 ng/μL. […] Incubate at 25° C. for 40 min. • 11. Record luminescence signal on an Envision plate reader (384-CTG). 5. Data Analysis
The percent (%) inhibition at each concentration of compound is calculated based on and relative to the signal in the High and Low control wells contained within each assay plate. […] The concentrations and % inhibition values for tested compounds were plotted and the concentration of compound required for 50% inhibition (IC50) was determined with a Three-parameter logistic dose response equation. The endpoint value (IC50) for the reference peptide/compound was evaluated in each experiment as a quality control measure. If the endpoint value was within 3-fold of the expected value, then the experiment was deemed acceptable.

T1 sequence (P52333 781-1124 limits assumed): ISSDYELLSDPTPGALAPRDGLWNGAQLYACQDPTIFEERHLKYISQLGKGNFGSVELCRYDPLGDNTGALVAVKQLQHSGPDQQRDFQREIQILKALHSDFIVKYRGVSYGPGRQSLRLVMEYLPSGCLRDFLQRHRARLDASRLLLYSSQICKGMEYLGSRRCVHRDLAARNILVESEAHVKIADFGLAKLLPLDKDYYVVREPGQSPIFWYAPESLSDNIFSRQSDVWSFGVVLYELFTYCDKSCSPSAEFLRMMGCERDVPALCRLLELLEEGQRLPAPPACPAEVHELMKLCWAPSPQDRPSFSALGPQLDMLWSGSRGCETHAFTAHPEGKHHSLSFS
Chain of HPK1 (Q92918 whole entry): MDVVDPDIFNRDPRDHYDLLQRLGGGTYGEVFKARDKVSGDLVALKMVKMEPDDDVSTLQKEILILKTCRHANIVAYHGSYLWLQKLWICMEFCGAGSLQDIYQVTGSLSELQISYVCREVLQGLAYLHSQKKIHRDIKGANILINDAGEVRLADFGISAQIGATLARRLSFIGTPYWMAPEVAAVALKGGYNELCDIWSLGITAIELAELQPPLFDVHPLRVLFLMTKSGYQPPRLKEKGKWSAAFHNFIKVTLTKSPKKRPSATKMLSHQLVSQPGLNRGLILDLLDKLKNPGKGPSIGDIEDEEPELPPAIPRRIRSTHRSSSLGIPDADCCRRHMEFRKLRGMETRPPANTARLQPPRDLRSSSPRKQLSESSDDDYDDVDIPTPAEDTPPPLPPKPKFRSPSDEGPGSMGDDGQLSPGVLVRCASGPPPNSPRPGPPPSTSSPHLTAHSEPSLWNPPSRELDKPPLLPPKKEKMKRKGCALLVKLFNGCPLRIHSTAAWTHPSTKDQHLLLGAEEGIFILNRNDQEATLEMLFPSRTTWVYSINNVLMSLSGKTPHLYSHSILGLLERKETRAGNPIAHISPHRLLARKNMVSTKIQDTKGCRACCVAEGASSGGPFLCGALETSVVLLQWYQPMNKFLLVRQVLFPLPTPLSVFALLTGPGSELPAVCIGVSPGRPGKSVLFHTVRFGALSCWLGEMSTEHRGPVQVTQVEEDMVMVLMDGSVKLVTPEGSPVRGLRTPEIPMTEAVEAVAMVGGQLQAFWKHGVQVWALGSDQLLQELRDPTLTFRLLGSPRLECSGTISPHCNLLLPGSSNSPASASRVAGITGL

A word on the IC50: it is the concentration needed to halve the response being measured. Turning to `COc1cc2c(cc1Nc1ncc(Cl)c(-n3cc(C4(C(=O)O)CC4)c4ccccc43)n1)CN(C)CC2` [Example 143], in experiment [1], the IC50 was greater than 1000 nM and the “JAKs/HPK1 IC50 Ratio, B*” value is 433. Further, in experiment [2], the IC50 was no more than 100 nM.

On to `CCc1c[nH]c2ncc(-c3ccc(F)c(P(C)(C)=O)c3)cc12` [Example 51, (5-(3-Ethyl-1H-pyrrolo[2,3-b]pyridin-5-yl)-2-fluorophenyl)dimethylphosphine oxide], for which, in experiment [1], the IC50 is greater than 1000 nM and the “JAKs/HPK1 IC50 Ratio, B*” value came out at 51. In experiment [2], the IC50 was no more than 100 nM.

Consider `COc1cc2c(cc1Nc1ncc3c(n1)N(c1ccccc1P(C)(C)=O)CCO3)CN(C)CC2` [Example 47, (2-(2-((6-Methoxy-2-methyl-1,2,3,4-tetrahydroisoquinolin-7-yl)amino)-6H-pyrimido[5,4-b][1,4]oxazin-8(7H)-yl)phenyl)dimethylphosphine oxide], for which, in experiment [1], the IC50 was greater than 1000 nM and the “JAKs/HPK1 IC50 Ratio, B*” value is given as greater than 22. The IC50 in experiment [2] fell in the range of 100 to 500 nM.

Take `CCc1c[nH]c2ncc(-c3ccc(C(F)(F)F)c(P(C)(C)=O)c3)cc12` [Example 78, (5-(3-Ethyl-1H-pyrrolo[2,3-b]pyridin-5-yl)-2-(trifluoromethyl)phenyl)dimethylphosphine oxide]: in experiment [1], the IC50 is greater than 1000 nM and the “JAKs/HPK1 IC50 Ratio, B*” value is on record as greater than 15. Further, the IC50 in experiment [2] fell in the range of 500 to 1000 nM.

For `CCc1c[nH]c2ncc(-c3ccc(C(N)=O)c(P(C)(C)=O)c3)cc12` [Example 67, 2-(Dimethylphosphoryl)-4-(3-ethyl-1H-pyrrolo[2,3-b]pyridin-5-yl)benzamide], the IC50 in experiment [1] was greater than 1000 nM; in experiment [2], 100 to 500 nM. In addition, the “JAKs/HPK1 IC50 Ratio, B*” value in experiment [1] is on record as 10.

Consider `COc1cc2c(cc1Nc1ncc(Cl)c(N3CCc4ccccc4C3)n1)CN(C)CC2` [Example 5, N-(5-chloro-4-(3,4-dihydroisoquinolin-2(1H)-yl)pyrimidin-2-yl)-6-methoxy-2-methyl-1,2,3,4-tetrahydroisoquinolin-7-amine], for which, in experiment [2], the IC50 lay within 100 to 500 nM.

Turning to `COc1cc2c(cc1Nc1ncc(Cl)c(N3CCc4c(Cl)cccc43)n1)CN(C)CC2` [Example 12, N-(5-chloro-4-(4-chloroindolin-1-yl)pyrimidin-2-yl)-6-methoxy-2-methyl-1,2,3,4-tetrahydroisoquinolin-7-amine], in experiment [2], the IC50 is 100 to 500 nM.

For `COc1cc2c(cc1Nc1ncc3ccc(P(C)(C)=O)cc3n1)CN(C)CC2` [Example 172], the IC50 in experiment [2] lay in the range of 100 to 500 nM.

For `COc1cc2c(cc1Nc1ncc(Cl)c(N3CCc4ccccc43)n1)CN(C(=O)CN(C)C)CC2` [Example 26], the IC50 in experiment [2] is no more than 100 nM.

For `CCc1c[nH]c2ncc(-c3cccc(P(C)(C)=O)c3)cc12` [Example 53, (3-(3-Ethyl-1H-pyrrolo[2,3-b]pyridin-5-yl)phenyl)dimethylphosphine oxide], the IC50 in experiment [2] is 100 to 500 nM.

As for `COc1cc2c(cc1Nc1ncc3ncn(-c4ccccc4P(C)(C)=O)c3n1)CN(C)CC2` [Example 45, (2-(2-((6-Methoxy-2-methyl-1,2,3,4-tetrahydroisoquinolin-7-yl)amino)-9H-purin-9-yl)phenyl)dimethylphosphine oxide], the IC50 in experiment [2] is greater than 1000 nM.

With `CCc1c[nH]c2ncc(-c3ccc(Cl)c(P(C)(C)=O)c3)cc12` [Example 52, (2-Chloro-5-(3-ethyl-1H-pyrrolo[2,3-b]pyridin-5-yl)phenyl)dimethylphosphine oxide], the IC50 in experiment [2] is no more than 100 nM.

Take `COc1cc2c(cc1Nc1ncc(Cl)c(-c3ccnc4ccccc34)n1)CN(C)CC2` [Example 49, N-(5-chloro-4-(quinolin-4-yl)pyrimidin-2-yl)-6-methoxy-2-methyl-1,2,3,4-tetrahydroisoquinolin-7-amine]: the IC50 in experiment [2] lay in the range of 100 to 500 nM.

Regarding `COc1cc2c(cc1Nc1ncc(Cl)c(N3CCc4cccnc43)n1)CN(C)CC2` [Example 17, N-(5-chloro-4-(2,3-dihydro-1H-pyrrolo[2,3-b]pyridin-1-yl)pyrimidin-2-yl)-6-methoxy-2-methyl-1,2,3,4-tetrahydroisoquinolin-7-amine], the IC50 in experiment [2] was in the range of 100 to 500 nM.

Consider `CCc1c[nH]c2ncc(-c3ccc(OC)c(P(C)(C)=O)c3)cc12` [Example 54, (5-(3-Ethyl-1H-pyrrolo[2,3-b]pyridin-5-yl)-2-methoxyphenyl)dimethylphosphine oxide], for which, in experiment [2], the IC50 was 100 to 500 nM.

Turning to `COc1cc2c(cc1Nc1ncc3c(n1)N(c1ccccc1)CCO3)CN(C)CC2` [Example 46, N-(6-methoxy-2-methyl-1,2,3,4-tetrahydroisoquinolin-7-yl)-8-phenyl-7,8-dihydro-6H-pyrimido[5,4-b][1,4]oxazin-2-amine], in experiment [2], the IC50 was in the range of 100 to 500 nM.

On to `CCc1c[nH]c2ncc(-c3cc(C)cc(P(C)(C)=O)c3)cc12` [Example 56, (3-(3-Ethyl-1H-pyrrolo[2,3-b]pyridin-5-yl)-5-methylphenyl)dimethylphosphine oxide], for which, in experiment [2], the IC50 was 500 to 1000 nM.

With `CCc1c[nH]c2ncc(-c3ccc(NC)c(P(C)(C)=O)c3)cc12` [Example 71, (5-(3-Ethyl-1H-pyrrolo[2,3-b]pyridin-5-yl)-2-(methylamino)phenyl)dimethylphosphine oxide], the IC50 in experiment [2] fell in the range of 100 to 500 nM.

Take `COc1cc2c(cc1Nc1ncc(Cl)c(-n3c(C(=O)N(C)C)cc4ccccc43)n1)CN(C)CC2` [Example 28]: the IC50 in experiment [2] is greater than 1000 nM.

For the compound `CCc1c[nH]c2ncc(-c3ccc(N4CCCC4)c(P(C)(C)=O)c3)cc12` [Example 59], the IC50 in experiment [2] lay within 100 to 500 nM.

Regarding `COc1cc2c(cc1Nc1ncc3ccn(-c4cccnc4)c3n1)CN(C)CC2` [Example 40, 6-Methoxy-2-methyl-N-(7-(pyridin-3-yl)-7H-pyrrolo[2,3-d]pyrimidin-2-yl)-1,2,3,4-tetrahydroisoquinolin-7-amine], the IC50 in experiment [2] was no more than 100 nM.
